Drawing on patent US5403934A, “Heterocyclic compounds” (Burroughs Wellcome Co., priority 1990, dated 1995), this text covers IC50 and ED50 for 13 compounds.

One experiment concerns Plasmodium falciparum. Briefly: In vitro activity vs. Plasmodium falciparum (modified semi-automated microdilution technique of Desjardins et al, [3H]-hypoxanthine). It counts as cell-based. The conditions noted are these: Erythrocyte, human erythrocytes, RPMI 1640 + 10% human plasma, 37° C, number of tests in parentheses in own column. The method, then:
1. In vitro Activity vs. Plasmodium falciparum The in vitro activity of the test compounds was determined using a modification of the semi-automated microdilution technique of Desjardins et al (1979). Initial dilutions were prepared from 1/100th molecular weight (in mg) of the compounds dissolved in dry ethanol, with the first 1:100 dilution being in ethanol and subsequent dilutions in RPMI 1640 medium supplemented with 10% v/v human plasma. Serial 1:2 drug dilutions were prepared in microtitration trays using microdiluters, each dilution being set up in triplicate. To this was added RPMI 1640 medium supplemented with 10% v/v human plasma, fresh and infected type A Rhesus positive human erythrocytes to yield a haematocrit of 3% and a parasitaemia of 0.25-0.5%. [^3 H]-hypoxanthine was added to give a final concentration of 12.5-16 μCi/ml of culture. The plates were sealed and incubated in a modular incubator in a gas mixture of 5% O2; 3% CO2 and 92% N2 by volume at 37° C. The test was completed as described by Desjardins et at (1979). Data were analysed to yield IC50 values by best fit to a sigmoidal dose-response curve.
On the technique in general: Broth dilution looks for growth in wells or tubes with falling amounts of substance.

In the next experiment the test system is P. yoelii. Description: Mouse 4-day suppressive test vs P. yoelii. Format: in vivo. The conditions noted are these: Plasmodium yoelii, P. yoelii YM strain, 7 oral doses in 4 days, CD1 mice, parasitaemia day 5. On the procedure:
2. In vivo Activity vs. P.yoelii in the Mouse
In vivo activity was determined using the modified 4-day suppressive test involving an infection of the YM strain of P.yoelii by 3×10^6 parasitized erythrocytes/ml and 7 oral doses given in 4 days in CD1 mice. Drugs were formulated by ball milling overnight in 0.25% celacol with stainless steel balls to form a fine particle suspension. The total requirement was formulated at the beginning of a test and thereafter stored at 4° C. On the morning of day 5 smears of tail blood were prepared from each mouse, the parasitaemias counted and the inhibition as compared to control animals calculated. Data were analysed to yield ED50 values by the best fit to a sigmoidal dose response curve, and the results are presented in Table 2 below.

Regarding `CCCCCCCCc1c(C)[nH]c(C)c(C#N)c1=O` [Example 10, 5-Cyano-2,6-dimethyl-3-octylpyridin-4(1H)-one], the IC50 in the experiment with Plasmodium falciparum came to 2300 nM.
Turning to `Cc1c(Br)c(=O)c(-c2ccc(Cl)cc2)c(C)n1C` [Example 12, 3-Bromo-5-(4-Chlorophenyl)-1,2,6-trimethylpyridin-4-one], the IC50 in the experiment with Plasmodium falciparum worked out at 23500 nM. This compound showed a median effective dose (ED50) in the experiment with P. yoelii of 16.4 mg/kg.
On the same counts, the results for `Cc1[nH]c(C)c(-c2ccc(Oc3ccc(OC(F)(F)F)cc3)cc2)c(=O)c1Br` [Example 14, 3-Bromo-5-(4-(4-trifluoromethoxyphenoxy)phenyl)-2,6-dimethylpyridin-4(1H)-one] are 23 nM and 0.34 mg/kg.
For the compound `Cc1cc(=O)c(-c2ccc(Oc3ccc(Cl)cc3)cc2)c(C)[nH]1` [Example 1, 3-(4-(4-Chlorophenoxy)phenyl)-2,6-dimethylpyridin-4(1H)-one], the IC50 in the experiment with Plasmodium falciparum stood at 2500 nM. This compound also registered an ED50 in the experiment with P. yoelii of 2.5 mg/kg.
The corresponding values for `Cc1[nH]c(C)c(-c2ccc(-c3ccc(Cl)cc3)cc2)c(=O)c1Br` [Example 7, 3-Bromo-5-(4'-chloro-4-biphenylyl)-2,6-dimethylpyridin-4(1H)-one] are 2000 nM and 1.4 mg/kg.
On the same counts, the results for `Cc1[nH]c(C)c(-c2ccc(-c3ccc(Cl)cc3)cc2)c(=O)c1Cl` [Example 8, 3-Chloro-5-(4'-chloro-4-biphenylyl)-2,6-dimethylpyridin-4(1H)-one] are 500 nM and 0.6 mg/kg.
On the same counts, the results for `Cc1[nH]c(C)c(-c2ccc(Oc3ccc(OC(F)(F)F)cc3)cc2)c(=O)c1Cl` [Example 15, 3-Chloro-5-(4-(4-trifluoromethoxyphenoxy)phenyl)-2,6-dimethylpyridin-4(1H)-one] are 20 nM and 0.19 mg/kg.
Turning to `Cc1cc(=O)c(-c2ccc(Oc3ccc(C(F)(F)F)cc3)cc2)c(C)[nH]1` [Example 4, 3-(4-(4-Trifluoromethylphenoxy)phenyl)-2,6-dimethylpyridin-4(1H)-one], in the experiment on Plasmodium falciparum, the IC50 was 1100 nM. Further, the ED50 with P. yoelii came to 1.25 mg/kg.
On the same counts, the results for `Cc1[nH]c(C)c(-c2ccc(Oc3ccc(C(F)(F)F)cc3)cc2)c(=O)c1Br` [Example 5, 3-Bromo-5-(4-(4-trifluoromethylphenoxy)phenyl)-2,6-dimethylpyridin-4(1H)-one] are 220 nM and 0.26 mg/kg.
On the same counts, the results for `Cc1cc(=O)c(-c2ccc(-c3ccc(Cl)cc3)cc2)c(C)[nH]1` [Example 6, 3-(4'-Chloro-4-biphenylyl)-2,6-dimethylpyridin-4(1H)-one] are 8400 nM and 1.6 mg/kg.
On the same counts, the results for `Cc1[nH]c(C)c(-c2ccc(Oc3ccc(Cl)cc3)cc2)c(=O)c1Br` [Example 2, 3-Bromo-5-[4-(4-chlorophenoxy)phenyl]-2,6-dimethylpyridin-4(1H)-one] are 200 nM and 0.7 mg/kg.
`Cc1[nH]c(C)c(-c2ccc(Oc3ccc(Cl)cc3)cc2)c(=O)c1Cl` [Example 3, 3-Chloro-5-(4-(4-chlorophenoxy)phenyl)-2,6-dimethylpyridin-4(1H)-one]: the IC50 in the experiment on Plasmodium falciparum is 1400 nM. Besides, in the experiment with P. yoelii, the 50% effective dose (ED50) turned out to be 1.6 mg/kg.
As for `Cc1[nH]c(C)c(-c2ccc(Oc3ccc([S+](C)[O-])cc3)cc2)c(=O)c1Br` (stereo not drawn) [Example 16, 3-Bromo-2,6-dimethyl-5-(4-(4-methylsulphinylphenoxy)phenyl)pyridin-4(1H)-one], the IC50 in the experiment with Plasmodium falciparum turned out to be 1600 nM.

A word on the IC50: it is the concentration needed to halve the response being measured. What is called ED50 is the midpoint of the dose-response relation. A low value points to greater potency.
